Source: patent US3984501A, “Phenyl- and benzylphosphonate esters” (priority 1975, dated 1976)
Where two headings read alike, the source gives them in different places.

Assays:
[1] = system: PGE2-induced contraction of isolated guinea pig ileum (GPI) and isolated rat fundus (RF); assay: Inhibition of PGE2-induced contraction of isolated smooth muscle preparations (anti-prostaglandin activity); assay type: cell-based; conditions: for IC50: isolated GPI or RF (tissue not specified per value), incubation 15 min initial exposure, 5 min each successive increment, read-out: I.C.50 (vs PGE2)
Protocol: (§1) The following compounds were tested for their effects on isolated smooth muscle preparations ##SPC18##
(§2) the techniques for setting up the isolated guinea pig ileum (GPI) and isolated rat fundus (RF) were those described in Pharmacological Experiments on Isolated Preparations (E. S. Livingston Ltd., Publishers). The tissues were bathed in Krebs solution and isotonic contractions were recorded. To elicit a maximal contraction after the initial equilibration period, the tissue (GPI or RF) was exposed to 20 ng/ml acetylcholine (ACh). After a dose-dependent pattern was established with ACh, the tissue was exposed to 20 ng/ml of PGE2 in order to elicit a maximal prostaglandin-induced contraction. Test doses of PGE2 and ACh which cause 50% of the maximal contractions were determined.
(§3) To test a compound for anti-prostaglandin activity, the tissue was incubated with a compound for a fixed period of time (15 minutes for the initial exposure to the test drug and 5 minutes for each successive increment in concentration) followed by the test dose of PGE2 or ACh to elicit a tissue contraction. Inhibition of contraction was measured as percent reduction in the magnitude of the response to the test dose of PGE2. The concentration of drug which inhibited the test concentration of PGE2 by 50% (I.C.50) was determined from the dose-response curve obtained by plotting concentration versus percent inhibition. Test contractions with ACh determined whether any decrease in contraction amplitude was specific for prostaglandin-induced contractions or a general deterioration of tissue function. The term selectivitiy refers to % inhibition of ACh-induced contractions at compound dosages which inhibi the PGE2 -induced contraction by the indicated percentage.

[2] = Topical toxicity in hairless mice; conditions: mouse, in vivo, topical or ocular, topically, 0.1 ml of 90% PEG, read-out: L.D.50 at 24 hours
Protocol: Topical toxicity was determined at a single dosage level on two hairless mice. The animals were restrained with neck collars. The test compound was applied in a total volume of 0.1 ml of 90% PEG (10% H2 O) spread uniformly over the back by means of a Q-tip.

[3] = system: ACh-induced contractions of isolated guinea pig ileum (GPI) and isolated rat fundus (RF); assay: Inhibition of ACh-induced contraction of isolated smooth muscle (selectivity); assay type: cell-based; conditions: for Selectivity: % inhibition of ACh-induced contractions at dosages which inhibit the PGE2-induced contraction by 50%: at 50% inhibition of PGE2-induced contraction; for Selectivity: % inhibition of ACh-induced contractions at dosages which inhibit the PGE2-induced contraction by 70%: at 70% inhibition of PGE2-induced contraction; for Selectivity: % inhibition of ACh-induced contractions at dosages which inhibit the PGE2-induced contraction by 90%: at 90% inhibition of PGE2-induced contraction
Protocol: as §1, §2, §3

[4] = Systemic toxicity in male Swiss Webster mice; assay type: in vivo, mouse; conditions: mouse, in vivo, in saline, 24 hours, read-out: L.D.50 at 24 hours
Protocol: (§4) Compounds 1-3 were tested for systemic toxicity. Male Swiss Webster mice were injected (i.p. or p.o.) with the test compound dissolved in saline (0.2 ml). The mice were examined every half hour for the first two hours after treatment and every hour for the following four hours. Thereafter the mice were examined irregularly, with a final examination at the end of the 48-hour test.

male Swiss Webster mice = assay: Systemic toxicity in male Swiss Webster mice; assay type: in vivo, mouse; conditions: from Table 2, vs compound 1
Protocol: as §4

Structure (SMILES)	IC50 ([1]; Cavia porcellus) [nM]	LD50 at 24 h [2] [mg/kg]	Selectivity: % inhibition of ACh-induced contractions at dosages which inhibit the PGE2-induced contraction by 50% [3] [%]	Selectivity: % inhibition of ACh-induced contractions at dosages which inhibit the PGE2-induced contraction by 70% [3] [%]	Selectivity: % inhibition of ACh-induced contractions at dosages which inhibit the PGE2-induced contraction by 90% [3]	LD50 at 24 h ([4]; ip) [mg/kg]	LD50 at 24 h ([4]; po) [mg/kg]	IC50 [1] [nM]	toxicity relative to compound 1 (male Swiss Webster mice)	times more potent than compound 1 ([1]; potency ratio vs compound 1, from Table 1)	times more potent than compound 2 ([1]; potency ratio vs compound 2, from Table 1)
O=C(c1ccc(OP(=O)(O)Oc2ccccc2)cc1)C(Cc1ccccc1)Cc1ccc(Cl)cc1 (centres unmarked) [Compound 1, reference compound]	47	> 4300	0	0	0%	194	235				
O=C(c1ccc(OP(=O)(O)c2ccccc2)cc1)C(Cc1ccccc1)Cc1ccc(Cl)cc1 (centres unmarked) [Compound 2]			0	0	30%	361		200	considerably less toxic than compound 1		
O=C(c1ccc(OP(=O)(O)Cc2ccccc2)cc1)C(Cc1ccccc1)Cc1ccc(Cl)cc1 (centres unmarked) [Compound 3]		> 4350	0	0	10-15%	408	715	6.1	considerably less toxic than compound 1	about 8 times	approximately 30 times
